Assay results: the NIST ThermoML archive (doi:10.1021/je900732r)

Test: mn = molality of the nth substance listed, in mol/kg
Conditions: 101 kPa, Liquid; for speed of sound: Pulse-echo method

[Co+2].[O-][Cl+3]([O-])([O-])[O-].[O-][Cl+3]([O-])([O-])[O-] [cobalt(II) perchlorate] + C[S+](C)[O-]
mass density [kg/m3]
Conditions	293.15 K	298.15 K	303.15 K	313.15 K	323.15 K	333.15 K
m1 = 0.01481	1103.37	1098.35	1093.34	1083.31	1073.29	1063.26
m1 = 0.0215	1104.79	1099.78	1094.77	1084.75	1074.74	1064.73
m1 = 0.03236	1107.1	1102.1	1097.1	1087.09	1077.1	1067.1
m1 = 0.04309	1109.4	1104.4	1099.41	1089.42	1079.44	1069.46
m1 = 0.05528	1112.02	1107.03	1102.04	1092.06	1082.1	1072.14
m1 = 0.06505	1114.13	1109.14	1104.15	1094.2	1084.25	1074.3
m1 = 0.08726	1118.94	1113.97	1109	1099.07	1089.15	1079.22
m1 = 0.1069	1123.24	1118.27	1113.31	1103.39	1093.51	1083.61
m1 = 0.1285	1127.98	1123.03	1118.08	1108.19	1098.33	1088.47
m1 = 0.148	1132.32	1127.38	1122.44	1112.57	1102.73	1092.9
m1 = 0.1695	1137.12	1132.18	1127.26	1117.42	1107.6	1097.8
m1 = 0.1911	1141.97	1137.05	1132.14	1122.33	1112.53	1102.76
m1 = 0.2111	1146.48	1141.57	1136.67	1126.88	1117.12	1107.38

[Cu+2].[O-][Cl+3]([O-])([O-])[O-].[O-][Cl+3]([O-])([O-])[O-] [copper perchlorate] + C[S+](C)[O-]
mass density [kg/m3]
Conditions	293.15 K	298.15 K	303.15 K	313.15 K	323.15 K	333.15 K
m1 = 0.01424	1103.32	1098.31	1093.29	1083.26	1073.23	1063.21
m1 = 0.01956	1104.48	1099.47	1094.46	1084.44	1074.42	1064.4
m1 = 0.02779	1106.27	1101.26	1096.26	1086.25	1076.24	1066.24
m1 = 0.03497	1107.84	1102.83	1097.83	1087.83	1077.83	1067.84
m1 = 0.0419	1109.35	1104.35	1099.36	1089.37	1079.36	1069.38
m1 = 0.05636	1112.53	1107.54	1102.54	1092.57	1082.6	1072.64
m1 = 0.07067	1115.69	1110.7	1105.71	1095.76	1085.8	1075.85
m1 = 0.08366	1118.57	1113.58	1108.61	1098.65	1088.72	1078.79
m1 = 0.09783	1121.71	1116.73	1111.75	1101.83	1091.91	1082
m1 = 0.1114	1124.76	1119.78	1114.82	1104.9	1095	1085.1
m1 = 0.1251	1127.83	1122.85	1117.89	1108	1098.11	1088.23
m1 = 0.1384	1130.82	1125.85	1120.9	1111.02	1101.14	1091.28

O=S(=O)([O-])C(F)(F)F.O=S(=O)([O-])C(F)(F)F.[Cu+2] [copper(II) trifluoromethanesulfonate] + CO
Conditions	mass density, 283.15 K [kg/m3]	mass density, 288.15 K [kg/m3]	mass density, 293.15 K [kg/m3]	mass density, 298.15 K [kg/m3]	mass density, 303.15 K [kg/m3]	mass density, 308.15 K [kg/m3]	mass density, 313.15 K [kg/m3]	speed of sound, 298.15 K [m/s]
m1 = 0.1213	829.484	824.791	820.094	815.38	810.649	805.885	801.107	1106
m1 = 0.1418	834.535	829.841	825.141	820.428	815.692	810.942	806.159	1106.6
m1 = 0.1772	843.312	838.612	833.908	829.19	824.45	819.682	814.901	1107.4
m1 = 0.2047	850.214	845.512	840.803	836.081	831.338	826.565	821.777	1108.2
m1 = 0.231	856.972	852.265	847.554	842.828	838.081	833.302	828.513	1109.1
m1 = 0.2571	863.707	858.996	854.279	849.545	844.805	840.033	835.231	1109.7
m1 = 0.2847	871.006	866.292	861.57	856.839	852.088	847.311	842.504	1110.5

C[S+](C)[O-] [dimethyl sulfoxide] + [Co+2].[O-][Cl+3]([O-])([O-])[O-].[O-][Cl+3]([O-])([O-])[O-]
m2 = 0
Conditions	mass density [kg/m3]
293.15 K	1100.22
298.15 K	1095.19
303.15 K	1090.18
313.15 K	1080.12
323.15 K	1070.08
333.15 K	1060.03

C[S+](C)[O-] [dimethyl sulfoxide] + [Cu+2].[O-][Cl+3]([O-])([O-])[O-].[O-][Cl+3]([O-])([O-])[O-]
m2 = 0
Conditions	mass density [kg/m3]
293.15 K	1100.23
298.15 K	1095.2
303.15 K	1090.18
313.15 K	1080.12
323.15 K	1070.08
333.15 K	1060.04

C[S+](C)[O-] [dimethyl sulfoxide] + [Mn+2].[O-][Cl+3]([O-])([O-])[O-].[O-][Cl+3]([O-])([O-])[O-]
m2 = 0
Conditions	mass density [kg/m3]
293.15 K	1100.22
298.15 K	1095.19
303.15 K	1090.17
313.15 K	1080.12
323.15 K	1070.08
333.15 K	1060.04

C[S+](C)[O-] [dimethyl sulfoxide] + [Ni+2].[O-][Cl+3]([O-])([O-])[O-].[O-][Cl+3]([O-])([O-])[O-]
m2 = 0
Conditions	mass density [kg/m3]
293.15 K	1100.22
298.15 K	1095.19
303.15 K	1090.17
313.15 K	1080.12
323.15 K	1070.08
333.15 K	1060.04

C[S+](C)[O-] [dimethyl sulfoxide] + [O-][Cl+3]([O-])([O-])[O-].[O-][Cl+3]([O-])([O-])[O-].[Zn+2]
m2 = 0
Conditions	mass density [kg/m3]
293.15 K	1100.23
298.15 K	1095.2
303.15 K	1090.18
313.15 K	1080.12
323.15 K	1070.08
333.15 K	1060.04

[Mn+2].[O-][Cl+3]([O-])([O-])[O-].[O-][Cl+3]([O-])([O-])[O-] [manganese (II) perchlorate] + C[S+](C)[O-]
mass density [kg/m3]
Conditions	293.15 K	298.15 K	303.15 K	313.15 K	323.15 K	333.15 K
m1 = 0.01626	1103.52	1098.5	1093.49	1083.46	1073.44	1063.42
m1 = 0.0211	1104.5	1099.48	1094.47	1084.45	1074.44	1064.43
m1 = 0.02843	1105.99	1100.98	1095.97	1085.96	1075.96	1065.96
m1 = 0.037	1107.74	1102.73	1097.73	1087.73	1077.74	1067.75
m1 = 0.04758	1109.9	1104.9	1099.91	1089.92	1079.94	1069.97
m1 = 0.05763	1111.96	1106.97	1101.98	1092.01	1082.05	1072.09
m1 = 0.07358	1115.24	1110.26	1105.28	1095.33	1085.39	1075.45
m1 = 0.09456	1119.59	1114.62	1109.65	1099.73	1089.82	1079.91
m1 = 0.1139	1123.62	1118.65	1113.7	1103.8	1093.92	1084.04
m1 = 0.1337	1127.77	1122.82	1117.87	1108	1098.14	1088.29
m1 = 0.1569	1132.59	1127.65	1122.73	1112.88	1103.06	1093.24
m1 = 0.1754	1136.6	1131.67	1126.75	1116.94	1107.13	1097.34

CO [methanol] + O=S(=O)([O-])C(F)(F)F.O=S(=O)([O-])C(F)(F)F.[Cu+2]
m2 = 0
Conditions	mass density [kg/m3]
283.15 K	800.548
288.15 K	795.857
293.15 K	791.162
298.15 K	786.452
303.15 K	781.722
308.15 K	776.978
313.15 K	772.2

CO [methanol] + [Co+2].[O-][Cl+3]([O-])([O-])[O-].[O-][Cl+3]([O-])([O-])[O-]
m2 = 0
Conditions	mass density [kg/m3]
283.15 K	800.55
288.15 K	795.872
293.15 K	791.172
298.15 K	786.464
303.15 K	781.742
308.15 K	776.992
313.15 K	772.214

CO [methanol] + [Ni+2].[O-][Cl+3]([O-])([O-])[O-].[O-][Cl+3]([O-])([O-])[O-]
m2 = 0
Conditions	mass density [kg/m3]
283.15 K	800.541
288.15 K	795.866
293.15 K	791.169
298.15 K	786.46
303.15 K	781.733
308.15 K	776.979
313.15 K	772.189
